The values that follow come from patent US8999935B2, “Treatment of osteoporosis in peri- and post-menopausal women with hepcidin” (New York University, priority 2009, dated 2015).

One data set concerns MCF-7 cells. Nature of the data set: VEGF formation in MCF-7 cell cultures. Type of data set: cell-based. The note with it: 24-hr treatment. The source says:
Due to the deficit of appropriate animal models that recapitulate estrogen and iron conditions in vivo, and the inherent difficulty of eliminating confounding variables with study in human subjects, applicants developed two cell culture models to test whether increase in body iron contributes to menopausal symptoms and diseases (FIG. 4). The concentration of 17β-estradiol (E2) were set at levels equivalent to breast tissue levels under pre-menopausal conditions (Parl F. F., “Estrogens, Estrogen Receptor and Breast Cancer,” Oxford: IOS Press, (2000), which is hereby incorporated by reference in its entirety). Ferritin levels were equal to 10% serum, given that the physiological upper limit of serum ferritin is 200 ng/ml. Twenty ng/ml of ferritin was used in the culture media. Transferrin was added in its wholly unsaturated form (apo-transferrin), or its fully 100% iron saturated (holo-transferrin), at 5 μg/ml, to the pre- and post-menopausal conditions, respectively. Serum-free alpha minimum essential medium (α-MEM) was used as the base medium for breast cancer MCF-7 cells, osteoblast progenitor C2C12 cells, and osteoclast progenitor Raw 264.7 cells. MCF-7 was supplemented with selenium (5 ng/ml) and insulin (5 μg/ml). C2C12 and Raw 264.7 cells were supplemented with bone morphorgenetic protein-2 (BMP-2) and receptor activator of nuclear factor kappa B ligand (RANKL) to stimulate their differentiation and maturation to ostoeblasts and osteoclasts, respectively. Epilife® basal medium was used for the culture of primary normal human epidermal keratinocytes (NHEK) cells.
E2, transferrin, and ferritin were analyzed separately in MCF-7 cell cultures to determine their relative contribution to alterations in VEGF levels.

Data set [1] deals with mouse osteoblast C2C12 cells. Nature of the data set: Alkaline phosphatase (osteoblast differentiation) in C2C12 cells. The format is cell-based. The protocol: FIGS. 18A-F show differences in alkaline phosphates (ALP) activities in mouse osteoblast C2C12 cells grown in medium only (FIG. 18A), with bone morphorgenetic protein-2 (BMP-2) (FIG. 18B), under the pre-menopausal (FIG. 18C), post-menopausal (FIG. 18D), with ferritin (FIG. 18E), and with deferoxamine (DFO) (FIG. 18F). DFO, an iron chelator, (10 μM) or ferritin alone (20 ng/mL) was used in the presence of BMP-2 at 50 ng/ml.
Due to the deficit of appropriate animal models that recapitulate estrogen and iron conditions in vivo, and the inherent difficulty of eliminating confounding variables with study in human subjects, applicants developed two cell culture models to test whether increase in body iron contributes to menopausal symptoms and diseases (FIG. 4). The concentration of 17β-estradiol (E2) were set at levels equivalent to breast tissue levels under pre-menopausal conditions (Parl F. F., “Estrogens, Estrogen Receptor and Breast Cancer,” Oxford: IOS Press, (2000), which is hereby incorporated by reference in its entirety). Ferritin levels were equal to 10% serum, given that the physiological upper limit of serum ferritin is 200 ng/ml. […]
To investigate whether increased iron levels affect the balance between bone formation and bone resorption, mouse osteoblasts C2C12 and osteoclasts Raw 264.7 cells were cultured in the two distinct media. […] Cell proliferation was then measured.

Another data set concerns C2C12 cells. Briefly: C2C12 cell proliferation. The format is cell-based, mouse. The note with it: 3 and 5 days. The protocol: To investigate whether increased iron levels affect the balance between bone formation and bone resorption, mouse osteoblasts C2C12 and osteoclasts Raw 264.7 cells were cultured in the two distinct media. […] In other experiments, the iron chelator deferoxamine (DFO), promoted alkaline phosphatase production, whereas ferritin diminished it. […] To further search how increased iron affect osteoblasts, C2C12 cells were grown in the presence of E2 or iron over a period of 3 and 5 days. Cell proliferation was then measured.

A short description of data set [2]: Effects of hepcidin on mice: serum iron and transferrin saturation after 8 weeks of i.p. treatment. The settings on record: 1.5 mg/kg i.p. twice a week for 8 weeks, versus control mice or mice treated with DFO. Type of data set: in vivo. As for the experimental part:
Human body has many ways to absorb, transfer, and store iron but has no effective ways to excrete it (Andrews N. C., “Disorders of Iron Metabolism,” N Engl J Med 341:1986-95 (1999), which is hereby incorporated by reference in its entirety). Menstruation, which can get rid of iron in young premenopausal women, is not optional in older postmenopausal women. Therefore, hepcidin and deferoxamine (DFO), a FDA-approved iron chelator, were tested to see whether hepcidin or DFO can inhibit iron absorption and decrease body iron levels. After overnight fasting, mice were injected intra-peritoneally (i.p.), twice a week, with hepcidin at 1.5 mg/kg, DFO at 400 mg/kg, or saline (control) with 10 mice per group. After 8 weeks consecutive treatment, mice were sacrificed and blood were collected by heart puncture. Serum samples were used for measurements of serum iron and transferrin saturation.

The conditions of data set [3]: mice, single 50 μg intraperitoneal injection, for 3 days; cited from earlier work.
A further data set deals with CYP1A1. Briefly: CYP1A1 mRNA induction in MCF-12A cells. Type of data set: cell-based, human. The note with it: ferritin at as little as 10 ng/ml. The source says: (§1) It was also investigated whether increased iron as a result of menopause affects estrogen metabolisms. It is known that 95% of serum E2 in premenopausal women is derived from ovarian secretion and subsequently distributed through the bloodstream in an endocrine fashion. Almost all of the circulating E2 in postmenopausal women is from extragonadal conversion of C19 steroid precursors, principally weak adrenal androgens (FIG. 26). The conversion occurs locally in tissues such as adipose and bone marrow and E2 acts in a paracrine fashion. […] The first step in the metabolism of estrogens is the hydroxylation catalyzed by cytochrome P450 enzymes such as CYP1A1 and CYP1B1, leading to the formation of 2-hydroxyl-E2 (2-OH-E2) and 4-OH-E2, respectively (Tsuchiya et al., “Cytochrome P450-mediated Metabolism of Estrogens and Its Regulation In Humans,” Cancer Leu 227, 115-24 (2005), which is hereby incorporated by reference in its entirety).

In another data set the test system is CYP1B1. Nature of the data set: CYP1B1 mRNA induction in MCF-12A cells. Type of data set: cell-based, human. The settings on record: ferritin at as little as 10 ng/ml.
Text: as §1

Another data set deals with CYP19A1. Nature of the data set: CYP19A1 mRNA induction in MCF-12A cells. Type of data set: cell-based, human. The settings on record: ferritin at as little as 10 ng/ml.
Text: as §1

For the molecule “apo-transferrin: transferrin in its wholly unsaturated form, without iron in it”, the VEGF formation entry with MCF-7 cells (various concentrations) was “no effect”.

Consider “transferrin: iron transport protein with two binding sites for iron, tested at different iron saturation”, for which the VEGF formation entry in the data set with MCF-7 cells (transferrin 5 μg/ml at various iron saturation levels) is listed as “no effect”.

Consider `C[C@]12CC[C@@H]3c4ccc(O)cc4CC[C@H]3[C@@H]1CC[C@@H]2O` [E2, 17β-estradiol], for which the VEGF formation entry in the data set with MCF-7 cells (various concentrations) was “some increase”. For the same molecule, the “osteoblast differentiation, as measured by alkaline phosphates activity” value in data set [1] (C2C12 cells) was “slightly stimulated”. The cell proliferation entry with C2C12 cells was “did not increase”.

With “hepcidin: peptide hormone, principal regulator of iron homeostasis; binds ferroportin (DTHFPICIFCCGCCHRSKCGMCCKT; listed as Homo sapiens)”, in data set [2], the “levels of serum iron” value is reported as “significantly lower” and the transferrin saturation result is “significantly lower”.

For “Asp-Thr-His-Phe-Pro-Ile-Cys-Ile-Phe-Cys-Cys-Gly-Cys-Cys-His-Arg-Ser-Lys-Cys-Gly-Met-Cys-Cys-Lys-Thr (DTHFPICIFCCGCCHRSKCGMCCKT; listed as Homo sapiens) [human hepcidin]”, the “fall in serum iron” value in data set [3] is 70%.

For the molecule ferritin, the VEGF formation result with MCF-7 cells (various concentrations) is given as “significantly decreases”. In addition, the alkaline phosphatase production entry in data set [1] (C2C12 cells with BMP-2 at 50 ng/ml, DFO 10 μM, ferritin 20 ng/mL) was “diminished”. Also, the “CYP1A1 mRNA levels” value with CYP1A1 is reported as “significantly increased”. Also, the “CYP1B1 mRNA levels” value with CYP1B1 was “significantly increased”. In addition, the “CYP19A1 mRNA levels” value in the data set on CYP19A1 is given as “not”.
